This passage reports IC50 results from patent publication US20230192661A1, “1, 4, 5, 6-TETRAHYDROPYRIMIDINE-2-AMINE DERIVATIVE” (UBE Corporation, priority 2020, published 2023).

The structures appear in SMILES notation.

In this assay the test system is Human hepatic stellate cells. The assay can be described thus: Active human hepatic stellate cell dedifferentiation test (decrease in ACTA2 mRNA expression). The class given is cell-based. The settings on record: 3 days differentiation then 2 days with compound, read-out: IC50 (rate of decrease in ACTA2 mRNA expression). Here is the method: Human hepatic stellate cells (manufactured by ScienCell Research Laboratories, Inc., 5300) were suspended in DMEM containing 10% FBS and […] penicillin/streptomycin/amphotericin B to prepare a cell suspension of 0.5×10^5 cells/mL, which was regarded as cells at the start of differentiation. The cells at the start of differentiation were dispensed at 1 mL/well to a 12-well plate and cultured, for differentiation, for 3 days in a 5% CO2 incubator (37° C.).
The culture solution in each well was removed, and DMEM containing 10% FBS and 1% penicillin/streptomycin/amphotericin B supplemented with a test compound dissolved in DMSO (final DMSO concentration: 0.1%) was added at 1 mL/well. The resultant was further cultured for 2 days in a 5% CO2 incubator (37° C.). In Test Example 4, the same reagents as in Test Example 1 were used unless otherwise specified.
RNA in the cultured cells was extracted using NucleoSpin® RNA (manufactured by Takara Bio Inc., U0955C), and cDNA was further synthesized from the extracted RNA using Prime Script™ RT reagent Kit with gDNA Eraser (manufactured by Takara Bio Inc., RR047A). Real time PCR was performed using the synthesized cDNA, various primers and TB Green® Premix Ex Taq™ II (manufactured by Takara Bio Inc., RR820A) and using PCR Thermal Cycler Dice Real Time (manufactured by Takara Bio Inc., System Code TP910, Model Code TP900). The primers used were actin alpha 2, smooth muscle (ACTA2) primer (manufactured by Takara Bio Inc., HA136273) and glyceraldehyde-3-phosphate dehydrogenase (GAPDH) primer (manufactured by Takara Bio Inc., HA067812).
The amplification curve of PCR was analyzed by the comparative Ct method. The expression level of ACTA2 mRNA was corrected with the expression level of GAPDH mRNA. An ACTA2 mRNA expression level when DMSO was added instead of the test compound was defined as 100%, and an ACTA2 mRNA expression level in the cells at the start of differentiation was defined as 0%. The rate of decrease in ACTA2 mRNA expression by the test compound was calculated according to the following expression.
Rate of decrease in ACTA2 mRNA expression (%)=[1−{(ACTA2 mRNA expression level in the case of adding the test compound)−(ACTA2 mRNA expression level in the cells at the start of differentiation)}/{(ACTA2 mRNA expression level in the case of adding DMSO)−(ACTA2 mRNA expression level in the cells at the start of differentiation)}]×100
An IC50 value was calculated from the rate of decrease in ACTA2 mRNA expression by the test compound. A: IC50<10 nM, B: 10 nM≤IC50<50 nM, C: 50 nM≤IC50<100 nM, or D: IC50≥100 nM.

In the case of `O=C(O)C[C@H](NC(=O)CNC(=O)c1cc(NC2=NCC(F)CN2)c2c(Cl)n[nH]c2c1)c1cc(Cl)cc(C(F)(F)F)c1` (stereo partly drawn) [Example 49-(b), (3S)-3-(2-(3-chloro-4-((5-fluoro-1,4,5,6-tetrahydropyrimidin-2-yl)amino)-1H-indazole-6-carboxamido)acetamido)-3-(3-chloro-5-(trifluoromethyl)phenyl)propanoic acid], the concentration for half-maximal inhibition (IC50) is < 10 nM.
With `O=C(O)C[C@H](NC(=O)CNC(=O)c1cc(NC2=NCC(F)CN2)c2cn[nH]c2c1)c1cc(Br)cc(C(F)(F)F)c1` (stereo partly drawn) [Example 2-(b), (3S)-3-(3-bromo-5-(trifluoromethyl)phenyl)-3-(2-(4-((5-fluoro-1,4,5,6-tetrahydropyrimidin-2-yl)amino)-1H-indazole-6-carboxamido)acetamido)propanoic acid] the figure was 10 to 50 nM.
Regarding `O=C(O)C[C@H](NC(=O)CNC(=O)c1cc(NC2=NCC(F)CN2)cc2[nH]ncc12)c1cc(I)cc(C(F)(F)F)c1` (stereo partly drawn) [Example 54-(b), (3S)-3-(2-(6-((5-fluoro-1,4,5,6-tetrahydropyrimidin-2-yl)amino)-1H-indazole-4-carboxamido)acetamido)-3-(3-iodo-5-(trifluoromethyl)phenyl)propanoic acid], the half-maximal inhibitory concentration (IC50) was 10 to 50 nM.
Next, `Cc1ccc([C@H](CC(=O)O)NC(=O)CNC(=O)c2cc(NC3=NCC(F)CN3)c3cn[nH]c3c2)cc1C(F)(F)F` (stereo partly drawn) [Example 14-(b), (3S)-3-(2-(4-((5-fluoro-1,4,5,6-tetrahydropyrimidin-2-yl)amino)-1H-indazole-6-carboxamido)acetamido)-3-(4-methyl-3-(trifluoromethyl)phenyl)propanoic acid]: < 10 nM; `O=C(O)C[C@H](NC(=O)CNC(=O)c1cc(NC2=NCC(F)CN2)c2cn[nH]c2c1)c1cc(Cl)c(F)c(C(F)(F)F)c1` (stereo partly drawn) [Example 15-(b), (3S)-3-(3-chloro-4-fluoro-5-(trifluoromethyl)phenyl)-3-(2-(4-((5-fluoro-1,4,5,6-tetrahydropyrimidin-2-yl)amino)-1H-indazole-6-carboxamido)acetamido)propanoic acid]: < 10 nM.
As to `O=C(O)C[C@H](NC(=O)CNC(=O)c1cc(NC2=NCC(F)CN2)c2cn[nH]c2c1)c1cc(OC(F)(F)F)ccc1F` (stereo partly drawn) [Example 33-(b), (3S)-3-(2-(4-((5-fluoro-1,4,5,6-tetrahydropyrimidin-2-yl)amino)-1H-indazole-6-carboxamido)acetamido)-3-(2-fluoro-5-(trifluoromethoxy)phenyl)propanoic acid], the IC50 was in the range of 10 to 50 nM.
